Measured values taken from US8410089B2, “Fused heterocyclic ring compound” (Takeda Pharmaceutical Company Limited, priority 2009, dated 2013).

Key:
male Wistar fatty rats = experiment: Oral glucose tolerance test (OGTT), hypoglycemic action; assay type: in vivo, rat; details: 10 mg/kg oral; for blood glucose lowering rate (%): OGTT in WF rats, decrease rate of AUC0-120min with control group as 100%, **p ≦ 0.01 vs control; for plasma glucose AUC0-120 min: 22-week-old WF rats fasted overnight, glucose 1 g/kg oral 60 min after compound, control group 32734.2
Method: A hypoglycemic action of the compound of the present invention was examined in an oral glucose tolerance test (OGTT) using male Wistar fatty rats (WF rat, TAKEDA RABICS).
First, 22-week-old WF rats fasted overnight were divided into groups (6 per group), and blood samples were collected and used as plasma samples before drug administration (−60 min). Thereafter, 0.5% methylcellulose (control group) and a test compound was orally administered at 10 mg/kg. At 60 min after compound administration, each individual was loaded by oral administration of glucose at 1 g/kg, and the blood was drawn before glucose loading (0 min) and 10, 30, 60 and 120 min after loading. The plasma glucose concentration was measured using L type Waco Glu2 (Wako) and Hitachi automatic analyzer 7080 (Hitachi Instruments Service Co., Ltd.). The 0-120 min area under time curve (AUC0-120min) and the decrease rate when the control group was 100% were calculated from the plasma glucose values measured.

human GPR119 = molecular target: T1, human GPR119 (Homo sapiens, UniProt Q8TDV5); experiment: Human GPR119 agonist activity with increase of intracellular cAMP concentration as index (CRE-luciferase reporter assay in hGPR119/CRE-luc/CHO(dhfr-) cells); assay type: cell-based; details: 1 μM test compound, 2 hr incubation; luciferase activity with 10 μM N-[4-(methylsulfonyl)phenyl]-5-nitro-6-{4-[4-(trifluoromethoxy)phenoxy]piperidin-1-yl}pyrimidin-4-amine = 100%, DMSO = 0%
T1 construct: expressed in transfected cells
T1 sequence (Q8TDV5 1-335): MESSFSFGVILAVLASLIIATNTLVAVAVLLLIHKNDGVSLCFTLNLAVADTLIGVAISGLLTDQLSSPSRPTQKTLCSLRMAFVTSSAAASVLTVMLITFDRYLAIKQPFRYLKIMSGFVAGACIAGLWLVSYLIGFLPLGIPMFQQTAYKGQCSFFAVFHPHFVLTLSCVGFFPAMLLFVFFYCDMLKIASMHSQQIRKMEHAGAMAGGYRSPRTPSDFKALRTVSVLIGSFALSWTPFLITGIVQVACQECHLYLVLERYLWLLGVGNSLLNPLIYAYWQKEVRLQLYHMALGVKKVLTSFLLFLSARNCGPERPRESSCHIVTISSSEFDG
Method: Evaluation of Human GPR119 Agonist Activity with Increase of Intracellular Camp Concentration as Index
(1) Construction of Expression Plasmid of Human GPR119 Gene
Using High Fidelity RNA PCR Kit (Takara Bio Inc.), human GPR119 gene was cloned by PCR using cDNA library synthesized from human brain mRNA (Clontech) as a template and synthetic DNA having the following sequence. Primer 1 and Primer 2 were is prepared by adding cleavage sites for Sal I and Nhe I based on the base sequence information of human GPR119 gene.
PCR was performed using Pyrobest DNA polymerase (Takara Bio Inc.). The obtained PCR product was cloned to pUC118 (Takara Bio Inc.), and the base sequence was […] and digested with restriction enzymes Sal I, Nhe I. The obtained DNA fragment was inserted into an animal cell expression vector pAKKO-111H (plasmid same as pAKKO-1.111H described in Biochem. Biophys. Acta, Hinuma, S. et al., 1219, 251-259 (1994)) similarly digested with Sal I, Nhe I, whereby an expression plasmid pAKKO-111H/hGPR119 was prepared.
(2) Construction of Reporter Plasmid
Zeocin resistance gene was cloned by PCR using plasmid pcDNA3.1/Zeo (Invitrogen) as a template, synthetic DNA having the following sequences wherein cleavage sites for restriction enzymes Sal I and BamH I are added to before and after a region containing SV40 Ori and a region containing SV40pA, which are located at the upstream and downstream of Zeocin resistance gene of this plasmid, as a primer set, and KOD polymerase (TOYOBO).
The obtained PCR product was inserted into pCR-BluntII (Invitrogen). A fragment containing a Zeocine resistance gene obtained by digesting the plasmid with restriction enzymes Sal I and BamH I was inserted into plasmid pGL3(R2.2)-Basic Vector (promega) similarly digested with Sal I and Bam HI to give Zeocin resistance plasmid pGL3(R2.2)/Zeocin-Basic Vector.
A reporter plasmid containing 4 cAMP responsive elements (CRE) connected in tandem was prepared using the following 5′-terminal phosphorylated synthetic DNA.
First, a DNA fragment containing a CRE sequence obtained by annealing CRE-Upper and CRE-Lower and elongating with KOD polymerase was inserted into pCR-BluntII to give pCR-BluntII-CRE. A fragment cleaved from pCR-BluntII-CRE with restriction enzymes Kpn I and Hind III was inserted into pGL3(R2.2)/Zeocin-Basic Vector similarly digested with Kpn I and Hind III to give reporter plasmid pGL3(R2.2)/Zeocin-CRE-luc.
(3) Introduction of Human GPR119 Gene and Reporter Gene into CHO(dhfr-) Cells and Acquirement of Expressing Cell
CHO(dhfr-) cells in MEMα (minimum essential medium alpha) (Nikken bio medical laboratory) medium containing 10% fetal bovine serum, 100 U/mL penicillin and 100 μg/mL streptomycin (Invitrogen) were detached by a treatment with trypsin-EDTA (ethylenediaminetetraacetic acid) (Invitrogen), the cells were washed with PBS (Phosphate-buffered saline), centrifuged (1000 rpm, 5 min) and suspended in PBS at a cell density of 1×10^7 cells/mL. Then, DNA was introduced into the cell by a gene pulser (Bio-Rad) under the following conditions. That is, 1×10^7 cells, plasmid pGL3(R2.2)/Zeocin-CRE-luc (15 μg), which was obtained in (2) and linearized with BssH II, and pAKKO-111H (5 μg) were added in a 0.4 cm gap cuvette, and the mixture was electroporated at voltage […], capacitance 950 μF. The cells were placed in the above-mentioned medium, cultured for 24 hr, and the cells were detached and centrifuged. The cells were diluted to 250 cells/well, plated in a 96 well plate (Corning) and cultivated in a CO2 incubator at 37° C. to give a transformant. Then, forskolin was added to the obtained transformant and a strain (CRE-luc/CHO(dhfr-) cell) that induces luciferase expression was selected. […]

| SMILES | GPR119 agonist activity (%) at 1 μM concentration (human GPR119) | blood glucose lowering rate (%) (male Wistar fatty rats) | plasma glucose AUC0-120 min (male Wistar fatty rats) |
| --- | --- | --- | --- |
| CC(C)(C)OC(=O)N1CCCC(n2ccc3c(N4CCc5cc(S(C)(=O)=O)ccc54)ncnc32)CC1 (centres unmarked) [Example 16, tert-butyl 4-{4-[5-(methylsulfonyl)-2,3-dihydro-1H-indol-1-yl]-7H-pyrrolo[2,3-d]pyrimidin-7-yl}azepane-1-carboxylate] | 77% |  |  |
| CN(CCO)C(=O)c1ccc2c(c1)CCN2c1cc(OC2CCN(C(=O)OC(C)(C)C)CC2)ncn1 [Example 20, tert-butyl 4-[(6-{5-[(2-hydroxyethyl)(methyl)carbamoyl]-2,3-dihydro-1H-indol-1-yl}pyrimidin-4-yl)oxy]piperidine-1-carboxylate] | 88% |  |  |
| CC(C)(C)OC(=O)N1CCC(n2ccc3c(N4CCc5cc(S(C)(=O)=O)ccc54)ccnc32)CC1 [Example 3, tert-butyl 4-{4-[5-(methylsulfonyl)-2,3-dihydro-1H-indol-1-yl]-1H-pyrrolo[2,3-b]pyridin-1-yl}piperidine-1-carboxylate] | 87% |  |  |
| CCc1cnc(N2CCC(Oc3cc(N4CCc5cc(S(C)(=O)=O)ccc54)ncn3)CC2)nc1 [Example 33, 1-(6-{[1-(5-ethylpyrimidin-2-yl)piperidin-4-yl]oxy}pyrimidin-4-yl)-5-(methylsulfonyl)-2,3-dihydro-1H-indole] | 74% | 23.4** % | 25073.3 mg·min/dL |
| CC(C)OC(=O)N1CCC(n2ccc3c(N4CCc5cc(N6CCCC6=O)ccc54)ncnc32)CC1 [Example 10, 1-methylethyl 4-{4-[5-(2-oxopyrrolidin-1-yl)-2,3-dihydro-1H-indol-1-yl]-7H-pyrrolo[2,3-d]pyrimidin-7-yl}piperidine-1-carboxylate] | 93% |  |  |
| CC(C)(C)OC(=O)N1CC(Cn2ccc3c(N4CCc5cc(S(C)(=O)=O)ccc54)ncnc32)C1 [Example 14, tert-butyl 3-({4-[5-(methylsulfonyl)-2,3-dihydro-1H-indol-1-yl]-7H-pyrrolo[2,3-d]pyrimidin-7-yl}methyl)azetidine-1-carboxylate] | 82% |  |  |
| CCc1cnc(N2CCC(Oc3cc(N4CCc5cc(C(=O)NC(C)CO)ccc54)ncn3)CC2)nc1 (centres unmarked) [Example 23, 1-(6-{[1-(5-ethylpyrimidin-2-yl)piperidin-4-yl]oxy}pyrimidin-4-yl)-N-(1-hydroxypropan-2-yl)-2,3-dihydro-1H-indole-5-carboxamide] | 79% |  |  |

More lines, main results first:

| GPR119 agonist activity (%) at 1 μM concentration (human GPR119) | SMILES | blood glucose lowering rate (%) (male Wistar fatty rats) | plasma glucose AUC0-120 min (male Wistar fatty rats) |
| --- | --- | --- | --- |
| 79% | CC(C)c1noc(N2CCC(Oc3cc(N4CCc5cc(S(C)(=O)=O)ccc54)ncn3)CC2)n1 [Example 38, 1-[6-({1-[3-(1-methylethyl)-1,2,4-oxadiazol-5-yl]piperidin-4-yl}oxy)pyrimidin-4-yl]-5-(methylsulfonyl)-2,3-dihydro-1H-indole] | 24.8** % | 24612.5 mg·min/dL |
| 84% | CC(C)OC(=O)N1CCC(Oc2cc(N3CCc4cc(NC(=O)CO)ccc43)ncn2)CC1 [Example 55, isopropyl 4-[(6-{5-[(hydroxyacetyl)amino]-2,3-dihydro-1H-indol-1-yl}pyrimidin-4-yl)oxy]piperidine-1-carboxylate] |  |  |
| 82% | CC(C)SC(=O)N1CCC(Oc2cc(N3CCc4cc(S(C)(=O)=O)ccc43)ncn2)CC1 [Example 35, S-(1-methylethyl)4-({6-[5-(methylsulfonyl)-2,3-dihydro-1H-indol-1-yl]pyrimidin-4-yl}oxy)piperidine-1-carbothioate] | 23.0** % | 25212.5 mg·min/dL |
| 85% | CC(C)SC(=O)N1CCC(Oc2cc(N3CCc4cc(NC(=O)C5CCCO5)ccc43)ncn2)CC1 [Example 50, S-(1-methylethyl)4-{[6-(5-{[(2R)-tetrahydrofuran-2-ylcarbonyl]amino}-2,3-dihydro-1H-indol-1-yl)pyrimidin-4-yl]oxy}piperidine-1-carbothioate] |  |  |
| 83% | CC(C)OC(=O)N1CCC(Oc2cc(N3CCc4cc(NC(=O)[C@H]5CCCO5)ccc43)ncn2)CC1 [Example 51, isopropyl 4-{[6-(5-{[(2R)-tetrahydrofuran-2-ylcarbonyl]amino}-2,3-dihydro-1H-indol-1-yl)pyrimidin-4-yl]oxy}piperidine-1-carboxylate] |  |  |
| 77% | COc1cnc(N2CCC(N(c3cc(N4CCc5cc(S(C)(=O)=O)ccc54)ncn3)C(F)(F)F)CC2)nc1 [Example 72, N-[1-(5-methoxypyrimidin-2-yl)piperidin-4-yl]-6-[5-(methylsulfonyl)-2,3-dihydro-1H-indol-1-yl]-N-(trifluoromethyl)pyrimidin-4-amine] |  |  |
| 83% | CC(C)OC(=O)N1CCC(N(c2cc(N3CCc4cc(S(C)(=O)=O)ccc43)ncn2)C(F)(F)F)CC1 [Example 70, 1-methylethyl 4-[{6-[5-(methylsulfonyl)-2,3-dihydro-1H-indol-1-yl]pyrimidin-4-yl}(trifluoromethyl)amino]piperidine-1-carboxylate] |  |  |
| 83% | CC(C)SC(=O)N1CCC(Oc2cc(N3CCc4cc(S(C)(=O)=O)cc(F)c43)ncn2)CC1 [Example 62, S-(1-methylethyl) 4-({6-[7-fluoro-5-(methylsulfonyl)-2,3-dihydro-1H-indol-1-yl]pyrimidin-4-yl}oxy)piperidine-1-carbothioate] |  |  |
| 85% | CCc1noc(N2CCC(Oc3cc(N4CCc5cc(S(C)(=O)=O)ccc54)ncn3)CC2)n1 [Example 41, 1-(6-{[1-(3-ethyl-1,2,4-oxadiazol-5-yl)piperidin-4-yl]oxy}pyrimidin-4-yl)-5-(methylsulfonyl)-2,3-dihydro-1H-indole] |  |  |
| 77% | CC(C)c1noc(N2CCC(Oc3cc(N4CCc5cc(S(C)(=O)=O)cc(F)c54)ncn3)CC2)n1 [Example 64, 7-fluoro-1-[6-({1-[3-(1-methylethyl)-1,2,4-oxadiazol-5-yl]piperidin-4-yl}oxy)pyrimidin-4-yl]-5-(methylsulfonyl)-2,3-dihydro-1H-indole] |  |  |
